This is an account of results in patent publication US7335359B2, “Glycosylated specificity exchangers” (Tripep AB, priority 2003, dated 2008).

For this test, the system named is human Gal-alpha1,3-Gal-specific antibodies. Nature of the test: Glycosylated peptide competitive assay on Gal-BSA coated plates with human sera IB72 (FIG. 4). In kind it is binding. As to conditions: positive control, mixed with human sera IB72. The procedure:
To further evaluate the ability of the glycosylated specificity exchangers to bind to a pathogen, a glycosylated peptide competitive assay was performed using the most reactive human sera (IB72). In brief, Gal-alpha1,3-Gal-labeled bovine serum albumin (Gal-BSA) was coated onto 96-well microplates in sodium carbonate buffer (pH: 9.6) at +4° C. overnight. Dilutions of human sera and dilutions of glyco-peptides (glycosylated HIV-specific ligand/receptor specificity exchangers or Gal-BSA) or non-glycosylated peptides (HIV-specific ligand/receptor specificity exchangers or BSA) were preincubated in phosphate-buffered saline (PBS) containing 1% bovine albumin, 2% goat serum and 0.05% Tween 20 at 37° C. for 1 h. The mixture was then added to the coated plates and incubated at 37° C. for 1 h, then washed 3 times with phosphate-buffered saline (PBS) containing 0.05% Tween 20 (pH: 7.4).
Bound antibodies were indicated with goat anti-human polyvalent Ig, conjugated with alkaline phosphatase. The plates were incubated and washed as described above. Plates were developed with phosphatase substrate at room temperature for 30 min, stopped with 1 M NaOH. Optical density (OD) at 405 nm/650 nm was determined to quantify the inhibition. […] Thus, specificity exchangers that bind Gal-alpha1,3-Gal-specific antibodies had been generated. […]

Take “Gal-alpha1,3-Gal-labeled bovine serum albumin [Gal-BSA]”: the “inhibition of human antibody binding to Gal-BSA” value came out at 100%.
